Results reported in PMC8330742, “New benzothieno[2,3-c]pyridines as non-steroidal CYP17 inhibitors: design, synthesis, anticancer screening, apoptosis induction, and in silico ADME profile studies” (Journal of Enzyme Inhibition and Medicinal Chemistry, 2021).

How the values were obtained:
SR = assay: NCI-60 SRB screen; format: cell-based; conditions: for inhibition at 10 µM: single dose 10^−5 M, read-out: Growth inhibition (%);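 on IC50: half-maximal inhibitory concentration read as cell viability unlike GI50 net growth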
MDA-MB-435 = assay: NCI-60 SRB screen; format: cell-based; conditions: for inhibition at 10 µM: MDA-MB-435, read-out: Growth inhibition (%);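 on IC50: half-maximal inhibitory concentration read as cell viability unlike GI50 net growth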
OVCAR-5 = assay: NCI-60 SRB screen; format: cell-based, human; conditions: OVCAR-5; for inhibition at 10 µM: single dose 10^−5 M, read-out: Growth inhibition (%);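 on IC50: half-maximal inhibitory concentration read as cell viability unlike GI50 net growth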
A498 = assay: NCI-60 SRB screen; format: cell-based, human; conditions: A498; for inhibition at 10 µM: single dose 10^−5 M, read-out: Growth inhibition (%)
PC-3 = assay: NCI-60 SRB screen; format: cell-based, human; conditions: PC-3; for inhibition at 10 µM: single dose 10^−5 M, read-out: Growth inhibition (%)
DU-145 = assay: NCI-60 SRB screen; format: cell-based, human; conditions: DU-145; for inhibition at 10 µM: single dose 10^−5 M, read-out: Growth inhibition (%)
MCF7 = assay: NCI-60 SRB screen; format: cell-based, human; conditions: for inhibition at 10 µM: MCF-7, single dose 10^−5 M, read-out: Growth inhibition (%)
MDA-MB-231/ATCC = assay: NCI-60 SRB screen; format: cell-based, human; conditions: for inhibition at 10 µM: MDA-MB-231, MDAMB231/ATCC, single dose 10^−5 M, read-out: Growth inhibition (%)
BT-549 = assay: NCI-60 SRB screen; format: cell-based, human; conditions: BT-549; for inhibition at 10 µM: single dose 10^−5 M, read-out: Growth inhibition (%)
T-47D = assay: NCI-60 SRB screen; format: cell-based, human; conditions: for inhibition at 10 µM: single dose 10^−5 M, read-out: Growth inhibition (%)
MDA-MB-468 = assay: NCI-60 SRB screen; format: cell-based, human; conditions: MDA-MB-468; for inhibition at 10 µM: single dose 10^−5 M, read-out: Growth inhibition (%)
[1] = test system: breast cancer cell line (MCF-7); assay: MTT cytotoxicity assay; format: cell-based, human
Description: (§1) The MTT method for monitoring in vitro cytotoxicity was used with multiwell plates. Three human cell lines, namely prostate cancer cell line (PC-3), renal cancer cell line (UO-31), and breast cancer cell line (MCF-7) were obtained from the American Type Culture Collection ATCC, Manassas, VA, USA). The cells were trypsinized and seeded in 96 well plates with a density of 1.2 − 1.8 × 10,000 cells/well for 24 h at 37 °C. After treating the cells with five concentrations of compound 5c (0.01, 0.1, 1, 10, 100 µM), an MTT solution (Sigma Co., St. Louis, MO, USA) (5 mg/mL in phosphate buffer solution) was applied to each well and […]. The plates were cultivated in 5% CO2 for 4 h at 37 °C. Successively, the remaining formazan crystals were dissolved in 100 µl of DMSO, and the absorbance was determined with the ROBONIK P2000 spectrophotometer at a wavelength of 570 nm. The obtained values were analysed using Gen5 software (BioTek, UK). The proliferation percentage in each treated cell line was standardised based on their control wells. Both tests have been conducted in triplicate. The IC50 values were calculated using sigmoidal dose-response curve fitting models. […] Each test included a blank containing a complete medium without cells.

[2] = test system: prostate cancer cell line (PC-3); assay: MTT cytotoxicity assay; format: cell-based, human
Description: as §1

[3] = test system: renal cancer cell line (UO-31); assay: MTT cytotoxicity assay; format: cell-based, human
Description: as §1

RPMI-8226 = assay: NCI-60 SRB screen; format: cell-based; conditions: RPMI-8226; for inhibition at 10 µM: single dose 10^−5 M, read-out: Growth inhibition (%);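 on IC50: half-maximal inhibitory concentration read as cell viability unlike GI50 net growth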
SF-539 = assay: NCI-60 SRB screen; format: cell-based, human; conditions: SF-539, five dose
SNB-19 = assay: NCI-60 SRB screen; format: cell-based; conditions: SNB-19, five dose
SNB-75 = assay: NCI-60 SRB screen; format: cell-based, human; conditions: SNB-75, five dose
U251 = assay: NCI-60 SRB screen; format: cell-based, human; conditions: U251, five dose
[4] = Homo sapiens, MDA-MB-231/ATCC, five dose

## COc1ccc(C2NC(=O)C(C#N)c3c2sc2c(F)cccc32)c(OC)c1 (stereo not shown) [Compound 5a, 1-(2,4-Dimethoxyphenyl)-4-cyano-8-fluoro-1,2-dihydro[1]benzothieno [2,3-c]pyridin-3(4H)-one]
SR; Homo sapiens
  inhibition at 10 µM: 86.1%
MDA-MB-435; Homo sapiens
  inhibition at 10 µM: -129%
OVCAR-5; Homo sapiens
  inhibition at 10 µM: 1.24%
A498; Homo sapiens
  inhibition at 10 µM: 74.8%
PC-3; Homo sapiens
  inhibition at 10 µM: 43.2%
DU-145; Homo sapiens
  inhibition at 10 µM: 9.51%
MCF7; Homo sapiens
  inhibition at 10 µM: 75.5%
MDA-MB-231/ATCC; Homo sapiens
  inhibition at 10 µM: 27.3%
BT-549; Homo sapiens
  inhibition at 10 µM: 78.6%
T-47D; Homo sapiens, T47D
  inhibition at 10 µM: 38.3%
MDA-MB-468; Homo sapiens
  inhibition at 10 µM: 75.7%
[1]
  potency compared to staurosporine: moderate activity
[2]
  potency compared to staurosporine: moderate activity
[3]
  potency compared to staurosporine: weak activity
other
  melting point: 100 to 102 °C

## COc1ccc(C2NC(=O)C(C#N)c3c2sc2c(F)cccc32)cc1 (stereo not shown) [Compound 5b, 4-Cyano-8-fluoro-1-(4-methoxyphenyl)-1,2-dihydro[1]benzothieno[2,3-c] pyridin-3(4H)-one]
RPMI-8226; Homo sapiens
  inhibition at 10 µM: 36.9%
SR; Homo sapiens
  inhibition at 10 µM: 77.9%
MDA-MB-435; Homo sapiens
  inhibition at 10 µM: 109%
OVCAR-5; Homo sapiens
  inhibition at 10 µM: 14.4%
A498; Homo sapiens
  inhibition at 10 µM: 68.8%
PC-3; Homo sapiens
  inhibition at 10 µM: 50.6%
DU-145; Homo sapiens
  inhibition at 10 µM: 35.2%
MCF7; Homo sapiens
  inhibition at 10 µM: 67.4%
MDA-MB-231/ATCC; Homo sapiens
  inhibition at 10 µM: 28.8%
BT-549; Homo sapiens
  inhibition at 10 µM: 44.6%
T-47D; Homo sapiens, T47D
  inhibition at 10 µM: 19.9%
MDA-MB-468; Homo sapiens
  inhibition at 10 µM: 66.3%
[1]
  potency compared to staurosporine: moderate activity
[2]
  potency compared to staurosporine: moderate activity
[3]
  potency compared to staurosporine: moderate activity
other
  melting point: 103 to 105 °C

## N#CC1C(=O)NC(c2ccccc2[N+](=O)[O-])c2sc3c(F)cccc3c21 (stereo not shown) [Compound 5c, 4-Cyano-8-fluoro-1-(2-nitrophenyl)-1,2-dihydro[1]benzothieno[2,3-c] pyridin-3(4H)-one]
RPMI-8226; Homo sapiens, five dose
  GI50: 10.6 µM
  IC50: 34.7 µM
  LC50: > 100 µM
RPMI-8226; Homo sapiens
  inhibition at 10 µM: 58.8%
RPMI-8226; five dose
  TGI: 100 µM
SR; Homo sapiens, five dose
  GI50: 14.1 µM
  IC50: 25.1 µM
  LC50: > 100 µM
SR; Homo sapiens
  inhibition at 10 µM: 33.2%
SR; five dose
  TGI: 100 µM
SF-539; Homo sapiens
  GI50: 23 µM
  IC50: 46.8 µM
SF-539
  TGI: 100 µM
SNB-19; Homo sapiens
  GI50: 24.6 µM
  IC50: 44.7 µM
  LC50: > 100 µM
SNB-19
  TGI: 100 µM
SNB-75; Homo sapiens
  GI50: 6.12 µM
  IC50: > 100 µM
SNB-75
  TGI: 100 µM
U251; Homo sapiens, U-251
  GI50: 2.5 µM
  IC50: 12.6 µM
U251
  TGI: 100 µM
MDA-MB-435; Homo sapiens, MDA-MB-435
  GI50: 27.2 µM
  IC50: 38 µM
MDA-MB-435; Homo sapiens
  inhibition at 10 µM: -1.7%
MDA-MB-435; Homo sapiens, MDA-MB-435, five dose
  LC50 (50% lethal concentration): > 100 µM
MDA-MB-435; MDA-MB-435, five dose
  TGI: 100 µM
OVCAR-5; Homo sapiens, five dose
  GI50: 0.73 µM
  IC50: 3.39 µM
OVCAR-5; Homo sapiens
  inhibition at 10 µM: 115%
OVCAR-5; five dose
  TGI: 100 µM
A498; five dose
  TGI: 5.98 µM
A498; Homo sapiens, five dose
  GI50: 1.32 µM
  IC50: 3.09 µM
A498; Homo sapiens
  inhibition at 10 µM: 161%
PC-3; Homo sapiens, five dose
  GI50: 13.6 µM
  IC50: 25.1 µM
PC-3; Homo sapiens
  inhibition at 10 µM: 20%
PC-3; five dose
  TGI: 100 µM
DU-145; five dose
  TGI: 100 µM
DU-145; Homo sapiens, five dose
  GI50: 10.5 µM
  IC50: 19.1 µM
DU-145; Homo sapiens
  inhibition at 10 µM: 10.1%
MCF7; Homo sapiens
  inhibition at 10 µM: 76.4%
MCF7; Homo sapiens, five dose
  GI50: 0.26 µM
  IC50: 0.55 µM
MCF7; five dose
  TGI: 10.00 µM
MDA-MB-231/ATCC; Homo sapiens
  inhibition at 10 µM: 24.5%
MDA-MB-231/ATCC; [4]
  GI50: 11.6 µM
  IC50: 33.1 µM
MDA-MB-231/ATCC; MDA-MB-231/ATCC, five dose
  TGI: 100 µM
BT-549; five dose
  TGI: 100 µM
BT-549; Homo sapiens, five dose
  GI50: 16.5 µM
  IC50: 72.4 µM
BT-549; Homo sapiens
  inhibition at 10 µM: 10.8%
T-47D; Homo sapiens, T47D, five dose
  GI50: 0.32 µM
  IC50: > 100 µM
T-47D; Homo sapiens, T47D
  inhibition at 10 µM: 97.5%
T-47D; five dose
  TGI: 100 µM
MDA-MB-468; Homo sapiens, five dose
  GI50: 0.15 µM
  IC50: 0.24 µM
MDA-MB-468; Homo sapiens
  inhibition at 10 µM: 149%
MDA-MB-468; five dose
  TGI: 0.65 µM
[1]
  potency compared to staurosporine: half potency
[2]
  potency compared to staurosporine: higher potency
  potency relative to abiraterone: fourfold
[2]; Homo sapiens
  IC50: 2.08 µM
[3]
  potency compared to staurosporine: higher potency
